The source made the active and inactive calls. The rule behind the calls is not given here.

The term inhibition denotes the change of the read-out against control, counted positive when it falls. The EC50 is the concentration that produces a half-maximal response.

Assay [1] concerns the target T1, 17-beta-hydroxysteroid dehydrogenase type 1 (Homo sapiens) (UniProt P14061).
T1 sequence (whole entry): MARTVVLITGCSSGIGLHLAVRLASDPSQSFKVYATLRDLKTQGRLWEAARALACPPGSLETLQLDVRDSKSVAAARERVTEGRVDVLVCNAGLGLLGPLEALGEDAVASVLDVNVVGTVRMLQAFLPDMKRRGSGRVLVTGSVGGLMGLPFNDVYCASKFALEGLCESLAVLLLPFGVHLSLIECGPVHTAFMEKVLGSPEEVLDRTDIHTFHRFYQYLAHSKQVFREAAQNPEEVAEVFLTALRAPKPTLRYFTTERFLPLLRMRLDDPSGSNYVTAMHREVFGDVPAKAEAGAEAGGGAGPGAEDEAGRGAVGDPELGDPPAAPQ
The experiment in a line: Inhibition of human recombinant 17beta-HSD1 at 0.1 uM by cell-free assay. It counts as single protein.

In assay [2] the target is Estrogen receptor beta (Homo sapiens, UniProt Q92731). The experiment in a line: Activity at human recombinant ERbeta by fluorescence polarization assay. In general terms: Fluorescence polarisation rises when a labelled molecule tumbles more slowly, as on binding a larger partner.
Estrogen receptor beta, sequence (Q92731 whole entry): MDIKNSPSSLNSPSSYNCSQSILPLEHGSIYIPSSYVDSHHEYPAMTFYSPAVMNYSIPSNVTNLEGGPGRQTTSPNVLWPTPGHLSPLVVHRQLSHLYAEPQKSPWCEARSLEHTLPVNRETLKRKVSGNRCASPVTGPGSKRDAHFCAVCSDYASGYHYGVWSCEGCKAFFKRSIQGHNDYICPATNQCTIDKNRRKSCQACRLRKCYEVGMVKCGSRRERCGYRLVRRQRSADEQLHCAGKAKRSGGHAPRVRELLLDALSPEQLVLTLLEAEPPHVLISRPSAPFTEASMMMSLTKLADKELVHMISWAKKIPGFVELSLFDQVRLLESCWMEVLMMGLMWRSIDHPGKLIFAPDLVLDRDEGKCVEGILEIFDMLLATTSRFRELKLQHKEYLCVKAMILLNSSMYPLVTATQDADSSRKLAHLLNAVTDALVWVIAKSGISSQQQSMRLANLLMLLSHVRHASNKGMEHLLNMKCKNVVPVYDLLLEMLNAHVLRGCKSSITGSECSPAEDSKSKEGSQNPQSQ
The target of assay [3] is T1, 17-beta-hydroxysteroid dehydrogenase type 1 (Homo sapiens). In words: Inhibition of human recombinant 17beta-HSD1 at 1 uM by cell-free assay. It counts as single protein.
Assay [4] concerns the target T2, Estrogen receptor (Homo sapiens, UniProt P03372).
T2 sequence (P03372 whole entry): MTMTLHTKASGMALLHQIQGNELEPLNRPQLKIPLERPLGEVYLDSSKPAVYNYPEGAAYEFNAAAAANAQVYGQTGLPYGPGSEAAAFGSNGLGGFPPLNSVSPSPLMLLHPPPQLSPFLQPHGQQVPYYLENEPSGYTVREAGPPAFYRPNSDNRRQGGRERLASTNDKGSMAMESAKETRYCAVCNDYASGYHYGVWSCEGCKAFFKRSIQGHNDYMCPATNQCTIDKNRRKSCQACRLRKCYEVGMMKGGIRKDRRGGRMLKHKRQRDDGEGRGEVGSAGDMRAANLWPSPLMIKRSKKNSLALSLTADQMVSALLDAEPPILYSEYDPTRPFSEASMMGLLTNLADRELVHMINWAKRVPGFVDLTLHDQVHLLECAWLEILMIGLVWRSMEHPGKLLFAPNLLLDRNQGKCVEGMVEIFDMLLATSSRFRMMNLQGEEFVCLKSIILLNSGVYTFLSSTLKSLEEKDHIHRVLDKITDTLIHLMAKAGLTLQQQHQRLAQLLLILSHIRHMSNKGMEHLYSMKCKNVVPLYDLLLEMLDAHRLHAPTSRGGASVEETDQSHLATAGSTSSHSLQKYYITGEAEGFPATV
In words: Activity at human recombinant ERalpha by fluorescence polarization assay.

In assay [5] the target is T1, 17-beta-hydroxysteroid dehydrogenase type 1 (Homo sapiens). In words: Inhibition of human recombinant 17beta-HSD1 expressed in human MCF7 cells at 0.1 uM by cell-based assay.
For assay [6] the target is unchanged. The experiment in a line: Inhibition of human recombinant 17beta-HSD1 expressed in human MCF7 cells at 1 uM by cell-based assay.
The target in assay [7] is T3, 17-beta-hydroxysteroid dehydrogenase type 2 (Homo sapiens) (UniProt P37059).
T3 sequence (whole entry): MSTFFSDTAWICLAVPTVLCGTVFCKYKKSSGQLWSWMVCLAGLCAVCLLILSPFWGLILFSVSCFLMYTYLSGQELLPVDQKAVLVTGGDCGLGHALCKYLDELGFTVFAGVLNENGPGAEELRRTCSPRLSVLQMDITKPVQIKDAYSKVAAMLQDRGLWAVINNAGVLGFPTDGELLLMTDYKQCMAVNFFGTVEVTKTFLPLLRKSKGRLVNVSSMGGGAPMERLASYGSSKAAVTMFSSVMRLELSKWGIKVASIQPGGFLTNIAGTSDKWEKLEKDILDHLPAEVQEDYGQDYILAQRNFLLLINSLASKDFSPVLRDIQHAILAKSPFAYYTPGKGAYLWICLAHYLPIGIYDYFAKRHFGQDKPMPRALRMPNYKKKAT
In words: Inhibition of human recombinant 17beta-HSD2 at 1 uM by cell-free assay.

The target in assay [8] is T3, 17-beta-hydroxysteroid dehydrogenase type 2 (Homo sapiens). The experiment in a line: Inhibition of human recombinant 17beta-HSD2 at 0.1 uM by cell-free assay.

On to `O=CC1=C(Sc2ccccc2)c2sc3nc4n(c(=O)c3c2CC1)CCCCC4`, for which the inhibition in assay [1] was determined as 63.3%; in assay [3] it was 85.1%. The EC50 in assay [2] and in assay [4] was above 10000 nM each time.
As for `O=CC1=C(Cl)c2sc3nc4n(c(=O)c3c2CCC1)CCCCC4`, the EC50 in assay [4] is above 10000 nM.
Regarding `CCCSC1=C(C=O)CCc2c1sc1nc3n(c(=O)c21)CCCCC3`, the inhibition in assay [5] is 74%; in assay [1] it was 72.9%; in assay [6] it was 100%; in assay [7] it was 5.3%; in assay [3], 95.2%. Also, the half-maximal effective concentration (EC50) in assay [2] and in assay [4] was above 1000 nM in each case. The inhibition result in assay [8] was “inactive”.
With `O=CC1=C(Sc2cccc(O)c2)c2sc3nc4n(c(=O)c3c2CC1)CCCCC4`, the inhibition in assay [5] came to 52.6%; in assay [1] it was 94.2%; in assay [6], 84.1%; in assay [7], 48.1%; in assay [3], 96.5%; in assay [8], 40.9%. The concentration giving a half-maximal response (EC50) in assay [2] and in assay [4] was above 1000 nM each time.
`O=Cc1ccc2c(sc3nc4n(c(=O)c32)CCCCC4)c1Sc1ccccc1`: the inhibition is 15.1% in assay [5], 26.9% in assay [1], 87.9% in assay [6] and 88.4% in assay [3]. The inhibition result in assay [7] and in assay [8] was “inactive” throughout. Also, the EC50 in assay [2] and in assay [4] was above 1000 nM each time.
Consider `CC(C)(C)SC1=C(C=O)CCc2c1sc1nc3n(c(=O)c21)CCCCC3`, for which the inhibition in assay [5] worked out at 33.6%; in assay [1], 49.8%; in assay [6] it was 87%; in assay [7], 1.2%; in assay [3] it was 89.6%. For the same molecule, the figures for the 50% effective concentration (EC50) in assay [2] and in assay [4] were above 1000 nM and above 10000 nM, respectively. Besides, the inhibition entry in assay [8] was “inactive”.
On to `CCCSC1=C(C=O)CCc2c1sc1nc3n(c(=O)c21)CCCCCC3`, for which the inhibition in assay [5] came to 15.6%; in assay [1], 63.3%; in assay [6] it was 57%; in assay [7], 36.9%; in assay [3] it was 74.7%; in assay [8], 31.4%. In addition, the 50% effective concentration (EC50) in assay [2] and in assay [4] was above 1000 nM throughout.
On to `O=CC1=C(SC2CCCCC2)c2sc3nc4n(c(=O)c3c2CC1)CCCCC4`, for which the inhibition amounted to 32.7% in assay [5], 51.2% in assay [1], 63.9% in assay [6] and 82.2% in assay [3]. The inhibition entry in assay [7] and in assay [8] was “inactive” in each case. Also, the half-maximal effective concentration (EC50) in assay [2] is above 1000 nM; in assay [4] it was above 10000 nM.
For `O=CC1=C(SC2CCCC2)c2sc3nc4n(c(=O)c3c2CC1)CCCCC4`, the inhibition in assay [5] was determined as 40.3%; in assay [1] it was 46.6%; in assay [6] it was 80.5%; in assay [3] it was 87.4%. For the same molecule, the inhibition result in assay [7] and in assay [8] was “inactive” each time. In addition, the EC50 in assay [2] is above 1000 nM; in assay [4] it was above 10000 nM.

Source of the values: ChEMBL document CHEMBL1154617, “Synthesis and biological evaluation of 17beta-hydroxysteroid dehydrogenase type 1 (17beta-HSD1) inhibitors based on a thieno[2,3-d]pyrimidin-4(3H)-one core” (J Med Chem, 2009).
